Data reported in article PMC9252067 (Cell chemical biology, 2021).

Legend:
[1] = test system: M. tuberculosis H37Rv; conditions: for EC50: M. tuberculosis growth, 1 week incubation, mean ± SD (n = 3) for JCP276, BMB034, BMB038, others single dose-response experiment (n = 1)
[2] = test system: BMB034-labeled proteins (serine hydrolases) of M. tuberculosis H37Rv; assay: Competitive ABPP in live cells with BMB034 probe, gel-based; conditions: pre-treatment of cultures 1 h; 1 μM BMB034 labeling; JCP276 at 1 or 10 μM

Structure (SMILES) | EC50 [1] [µM] | competition with BMB034 labeling [2] | inhibition of M. tuberculosis growth ([1]; negative control compound)
C#Cc1ccc(NC(=O)Nc2ccc3c(Cl)c(OCCCBr)oc(=O)c3c2)cc1 [BMB038, 1-(3-(3-bromopropoxy)-4-chloro-1-oxo-1H-isochromen-7-yl)-3-(4-ethynylphenyl)urea] | 36 ± 11 | – | –
O=c1oc(Cl)c(Cl)c2ccccc12 [DCI, 3,4-dichloroisocoumarin] | – | did not compete | does not inhibit M. tuberculosis growth
C#CCCOc1oc(=O)c2cc(NC(=O)Nc3ccccc3)ccc2c1Cl [BMB034, 1-(3-(but-3-yn-1-yloxy)-4-chloro-1-oxo-1H-isochromen-7-yl)-3-phenylurea] | 8.7 ± 1.1 | – | –
